Target: T1, recombinant LRRK2 kinase (Homo sapiens, UniProt Q5S007)
T1 construct: purchased Signal Chem, Richmond, BC, Canada
Test: LRRK2 kinase inhibition (Kinase-Glo luminescence)
Assay type: biochemical
Settings: IC50 grade; 25 μmol/L ATP, LRRKtide, 30° C. 2 hours; read-out: Enzyme activity LRRK2
Method: Upon completion of the reaction, an equal amount of Kinase-Glo (Promega, Madison, Wis.) solution was added thereto, followed by reaction for 40 minutes. A detection solution was added thereto, followed by further reaction at room temperature for 30 minutes. Then, IC50 of kinase was calculated by measuring the amount of luciferase using a microplate ELISA reader (Bio-Tek).

T1 sequence (Q5S007 whole entry): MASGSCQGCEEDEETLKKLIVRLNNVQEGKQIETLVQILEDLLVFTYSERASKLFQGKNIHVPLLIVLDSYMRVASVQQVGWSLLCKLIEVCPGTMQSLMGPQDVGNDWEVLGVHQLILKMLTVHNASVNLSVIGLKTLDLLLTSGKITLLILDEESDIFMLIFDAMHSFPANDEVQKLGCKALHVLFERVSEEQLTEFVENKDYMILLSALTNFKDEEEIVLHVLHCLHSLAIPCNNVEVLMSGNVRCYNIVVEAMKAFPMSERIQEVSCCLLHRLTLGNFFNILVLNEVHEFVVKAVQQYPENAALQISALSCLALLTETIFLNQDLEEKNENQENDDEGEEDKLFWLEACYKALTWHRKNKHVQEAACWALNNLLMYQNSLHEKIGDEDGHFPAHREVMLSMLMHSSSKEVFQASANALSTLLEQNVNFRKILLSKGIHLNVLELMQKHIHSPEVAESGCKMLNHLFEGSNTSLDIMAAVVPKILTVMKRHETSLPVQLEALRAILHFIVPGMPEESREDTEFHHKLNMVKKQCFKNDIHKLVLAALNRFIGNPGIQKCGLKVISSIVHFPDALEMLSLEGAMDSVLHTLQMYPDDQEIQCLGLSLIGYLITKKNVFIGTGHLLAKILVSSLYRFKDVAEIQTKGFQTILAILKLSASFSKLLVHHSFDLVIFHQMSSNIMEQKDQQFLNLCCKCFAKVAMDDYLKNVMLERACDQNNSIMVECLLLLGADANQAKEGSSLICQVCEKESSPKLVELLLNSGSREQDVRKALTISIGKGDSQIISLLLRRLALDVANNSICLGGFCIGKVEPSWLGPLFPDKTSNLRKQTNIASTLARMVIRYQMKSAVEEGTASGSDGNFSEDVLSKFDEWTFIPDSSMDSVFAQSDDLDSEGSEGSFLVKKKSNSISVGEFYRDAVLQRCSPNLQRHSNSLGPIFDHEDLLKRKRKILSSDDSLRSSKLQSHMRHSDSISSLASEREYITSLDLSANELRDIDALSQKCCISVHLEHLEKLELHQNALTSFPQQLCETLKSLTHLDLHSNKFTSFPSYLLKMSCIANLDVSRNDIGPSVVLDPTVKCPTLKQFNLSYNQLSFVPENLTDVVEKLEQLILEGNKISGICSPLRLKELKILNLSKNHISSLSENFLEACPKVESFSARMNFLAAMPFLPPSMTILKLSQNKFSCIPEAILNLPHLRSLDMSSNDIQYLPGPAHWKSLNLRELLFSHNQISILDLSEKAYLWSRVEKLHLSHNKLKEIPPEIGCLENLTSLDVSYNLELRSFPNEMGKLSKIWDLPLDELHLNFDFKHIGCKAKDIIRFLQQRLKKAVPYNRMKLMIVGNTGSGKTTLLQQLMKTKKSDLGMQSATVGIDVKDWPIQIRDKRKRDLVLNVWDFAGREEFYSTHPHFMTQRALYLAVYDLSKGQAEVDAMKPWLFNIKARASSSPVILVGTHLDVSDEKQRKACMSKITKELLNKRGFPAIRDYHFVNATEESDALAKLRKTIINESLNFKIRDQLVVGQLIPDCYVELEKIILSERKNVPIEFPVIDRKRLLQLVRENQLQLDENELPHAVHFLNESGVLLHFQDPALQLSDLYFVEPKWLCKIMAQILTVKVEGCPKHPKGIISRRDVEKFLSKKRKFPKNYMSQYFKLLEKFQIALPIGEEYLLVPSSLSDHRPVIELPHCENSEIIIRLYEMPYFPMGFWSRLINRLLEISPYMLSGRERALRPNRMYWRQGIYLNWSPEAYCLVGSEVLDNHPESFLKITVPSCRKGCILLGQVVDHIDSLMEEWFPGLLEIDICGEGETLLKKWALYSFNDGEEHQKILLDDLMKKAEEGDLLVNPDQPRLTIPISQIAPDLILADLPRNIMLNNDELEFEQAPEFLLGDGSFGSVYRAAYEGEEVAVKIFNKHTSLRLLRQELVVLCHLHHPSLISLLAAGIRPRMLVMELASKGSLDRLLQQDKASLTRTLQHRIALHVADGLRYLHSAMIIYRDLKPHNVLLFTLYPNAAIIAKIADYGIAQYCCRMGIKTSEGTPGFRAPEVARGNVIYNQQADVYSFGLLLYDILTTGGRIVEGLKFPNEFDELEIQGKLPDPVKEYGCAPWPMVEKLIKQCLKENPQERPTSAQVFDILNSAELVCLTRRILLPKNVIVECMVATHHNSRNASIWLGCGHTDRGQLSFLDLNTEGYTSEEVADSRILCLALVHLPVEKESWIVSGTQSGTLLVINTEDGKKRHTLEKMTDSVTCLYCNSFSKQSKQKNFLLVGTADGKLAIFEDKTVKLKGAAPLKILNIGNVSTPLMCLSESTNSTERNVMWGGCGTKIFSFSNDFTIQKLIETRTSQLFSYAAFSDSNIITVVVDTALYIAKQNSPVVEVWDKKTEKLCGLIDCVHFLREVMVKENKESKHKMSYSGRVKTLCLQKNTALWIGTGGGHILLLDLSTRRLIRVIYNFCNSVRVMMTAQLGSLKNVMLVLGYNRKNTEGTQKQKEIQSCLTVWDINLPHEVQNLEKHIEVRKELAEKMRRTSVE

SMILES | IC50
CCNc1nc(Nc2ccc(C(=O)N3CCC(F)(F)CC3)cc2OC)nc2[nH]cc(C#N)c12 [Example 27, 2-((4-(4,4-difluoropiperidine-1-carbonyl)-2-methoxyphenyl)amino)-4-(ethylamino)-7H-pyrrolo[2,3-d]pyrimidine-5-carbonitrile] | < 10 nM
CNc1nc(Nc2cn(C)nc2C)nc2[nH]cc(C#N)c12 [Example 28, 6-((1,3-dimethyl-1H-pyrazole-4-yl)amino)-4-(methylamino)-1H-pyrrolo[2,3-b]pyrimidine-3-carbonitrile] | 10 to 100 nM
CNc1nc(Nc2cnn(C)c2C)nc2[nH]cc(C#N)c12 [Example 29, 6-((1,5-dimethyl-1H-pyrazole-4-yl)amino)-4-(methylamino)-1H-pyrrolo[2,3-b]pyrimidine-3-carbonitrile] | 10 to 100 nM
CNc1nc(Nc2cn(C(C)C)nc2C)nc2[nH]cc(C#N)c12 [Example 30, 6-((1-isopropyl-3-methyl-1H-pyrazole-4-yl)amino)-4-(methylamino)-1H-pyrrolo[2,3-b]pyrimidine-3-carbonitrile] | 10 to 100 nM
CNc1nc(Nc2cnn(C(C)C)c2C)nc2[nH]cc(C#N)c12 [Example 31, 6-((1-isopropyl-5-methyl-1H-pyrazole-4-yl)amino)-4-(methylamino)-1H-pyrrolo[2,3-b]pyrimidine-3-carbonitrile] | < 10 nM
COc1cc(C(=O)N2CCOCC2)ccc1Nc1nc(NC2(C)CC2)c2c(C#N)c[nH]c2n1 [Example 36, 2-((2-methoxy-4-(morpholine-4-carbonyl)phenyl)amino)-4-((1-methylcyclopropyl)amino)-7H-pyrrolo[2,3-d]pyrimidine-5-carbonitrile] | < 10 nM
COc1cc(C(=O)N2CCOCC2)c(F)cc1Nc1nc(NC2(C)CC2)c2c(C#N)c[nH]c2n1 [Example 37, 2-((5-fluoro-2-methoxy-4-(morpholine-4-carbonyl)phenyl)amino)-4-((1-methylcyclopropyl)amino)-7H-pyrrolo[2,3-d]pyrimidine-5-carbonitrile] | < 10 nM
Cc1c(Nc2nc(NC3(C)CC3)c3c(C#N)c[nH]c3n2)cnn1C(C)C [Example 38, 2-((1-isopropyl-5-methyl-1H-pyrazole-4-yl)amino)-4-((1-methylcyclopropyl)amino)-7H-pyrrolo[2,3-d]pyrimidine-5-carbonitrile] | < 10 nM
Cc1nn(C(C)C)cc1Nc1nc(NC2(C)CC2)c2c(C#N)c[nH]c2n1 [Example 39, 2-((1-isopropyl-3-methyl-1H-pyrazole-4-yl)amino)-4-((1-methylcyclopropyl)amino)-7H-pyrrolo[2,3-d]pyrimidine-5-carbonitrile] | < 10 nM
Cc1nn(C)cc1Nc1nc(NC2(C)CC2)c2c(C#N)c[nH]c2n1 [Example 40, 2-((1,3-dimethyl-1H-pyrazole-4-yl)amino)-4-((1-methylcyclopropyl)amino)-7H-pyrrolo[2,3-d]pyrimidine-5-carbonitrile] | < 10 nM
Cc1c(Nc2nc(NC3(C)CC3)c3c(C#N)c[nH]c3n2)cnn1C [Example 41, 2-((1,5-dimethyl-1H-pyrazole-4-yl)amino)-4-((1-methylcyclopropyl)amino)-7H-pyrrolo[2,3-d]pyrimidine-5-carbonitrile] | < 10 nM
COc1cc(C(=O)N2CCO[C@H](C)C2)ccc1Nc1nc(NC2(C)CC2)c2c(C#N)c[nH]c2n1 [Example 42, (R)-2-((2-methoxy-4-(2-methylmorpholine-4-carbonyl)phenyl)amino)-4-((1-methylcyclopropyl)amino)-7H-pyrrolo[2,3-d]pyrimidine-5-carbonitrile] | < 10 nM
COc1cc(C(=O)N2CCO[C@@H](C)C2)ccc1Nc1nc(NC2(C)CC2)c2c(C#N)c[nH]c2n1 [Example 43, (S)-2-((2-methoxy-4-(2-methylmorpholine-4-carbonyl)phenyl)amino)-4-((1-methylcyclopropyl)amino)-7H-pyrrolo[2,3-d]pyrimidine-5-carbonitrile] | < 10 nM
COc1cc(C(=O)N2C[C@@H](C)O[C@@H](C)C2)ccc1Nc1nc(NC2(C)CC2)c2c(C#N)c[nH]c2n1 [Example 44, 2-((4-((2R,6S)-2,6-dimethylmorpholine-4-carbonyl)-2-methoxyphenyl)amino)-4-((1-methylcyclopropyl)amino)-7H-pyrrolo[2,3-d]pyrimidine-5-carbonitrile] | 10 to 100 nM
COc1cc(C(=O)N2CCC(F)(F)CC2)ccc1Nc1nc(NC2(C)CC2)c2c(C#N)c[nH]c2n1 [Example 45, 2-((4-(4,4-difluoropiperidine-1-carbonyl)-2-methoxyphenyl)amino)-4-((1-methylcyclopropyl)amino)-7H-pyrrolo[2,3-d]pyrimidine-5-carbonitrile] | 10 to 100 nM
CNc1nc(Nc2cn(C(C)(C)C(N)=O)nc2C)nc2[nH]cc(C#N)c12 [Example 46, 2-(4-((5-cyano-4-(methylamino)-7H-pyrrolo[2,3-d]pyrimidine-2-yl)amino)-3-methyl-1H-pyrazole-1-yl)-2-methylpropaneamide] | < 10 nM

SMILES | IC50
CNc1nc(Nc2cn(C(C)(C)C#N)nc2C)nc2[nH]cc(C#N)c12 [Example 47, 2-((1-(2-cyanopropane-2-yl)-3-methyl-1H-pyrazole-4-yl)amino)-4-(methylamino)-7H-pyrrolo[2,3-d]pyrimidine-5-carbonitrile] | < 10 nM
CCNc1nc(Nc2ncc(C(=O)N3CCOCC3)cc2OC)nc2[nH]cc(C#N)c12 [Example 48, 4-(ethylamino)-2-((3-methoxy-5-(morpholine-4-carbonyl)pyridine-2-yl)amino)-7H-pyrrolo[2,3-d]pyrimidine-5-carbonitrile] | > 100 nM
Cc1nn(C(C)(C)C#N)cc1Nc1nc(NC2(C)CC2)c2c(C#N)c[nH]c2n1 [Example 49, 2-((1-(2-cyanopropane-2-yl)-3-methyl-1H-pyrazole-4-yl)amino)-4-((1-methylcyclopropyl)amino)-7H-pyrrolo[2,3-d]pyrimidine-5-carbonitrile] | < 10 nM
CNc1nc(Nc2cnn([C@H]3CCN(C4COC4)C[C@@H]3F)c2Cl)nc2[nH]cc(C#N)c12 [Example 50, 2-((5-chloro-1-((3S,4S)-3-fluoro-1-(oxetane-3-yl)piperidine-4-yl)-1H-pyrazole-4-yl)amino)-4-(methylamino)-7H-pyrrolo[2,3-d]pyrimidine-5-carbonitrile] | < 10 nM
CCNc1nc(Nc2cnn([C@H]3CCN(C4COC4)C[C@@H]3F)c2Cl)nc2[nH]cc(C#N)c12 [Example 51, 2-((5-chloro-1-((3S,4S)-3-fluoro-1-(oxetane-3-yl)piperidine-4-yl)-1H-pyrazole-4-yl)amino)-4-(ethylamino)-7H-pyrrolo[2,3-d]pyrimidine-5-carbonitrile] | < 10 nM
CCNc1nc(Nc2cnn([C@H]3CCN(C4COC4)C[C@@H]3F)c2)nc2[nH]cc(C#N)c12 [Example 53] | < 10 nM
CC1(Nc2nc(Nc3cnn([C@H]4CCN(C5COC5)C[C@@H]4F)c3)nc3[nH]cc(C#N)c23)CC1 [Example 54, 2-((1-((3S,4S)-3-fluoro-1-(oxetane-3-yl)piperidine-4-yl)-1H-pyrazole-4-yl)amino)-4-((methylcyclopropyl)amino)-7H-pyrrolo[2,3-d]pyrimidine-5-carbonitrile] | < 10 nM
CNc1nc(Nc2ccc(C(=O)NC3CCN(C)CC3)cc2OC)nc2[nH]cc(C#N)c12 [Example 55, 4-((5-cyano-4-(methylamino)-7H-pyrrolo[2,3-d]pyrimidine-2-yl)amino)-3-methoxy-N-(1-methylpiperidine-4-yl)benzamide] | < 10 nM
CCNc1nc(Nc2ccc(C(=O)NC3CCN(C)CC3)cc2OC)nc2[nH]cc(C#N)c12 [Example 56, 4-((5-cyano-4-(ethylamino)-7H-pyrrolo[2,3-d]pyrimidine-2-yl)amino)-3-methoxy-N-(1-methylpiperidine-4-yl)benzamide] | < 10 nM
CNc1nc(Nc2ccc(C(=O)N3CCN(C4COC4)CC3)cc2OC)nc2[nH]cc(C#N)c12 [Example 57] | < 10 nM
CCNc1nc(Nc2ccc(C(=O)N3CCN(C4COC4)CC3)cc2OC)nc2[nH]cc(C#N)c12 [Example 58, 4-(ethylamino)-2-((2-methoxy-4-(4-(oxetane-3-yl)piperazine-1-carbonyl)phenyl)amino)-7H-pyrrolo[2,3-d]pyrimidine-5-carbonitrile] | < 10 nM
CNc1nc(Nc2cnn(CCOC)c2Cl)nc2[nH]cc(C#N)c12 [Example 59, 2-((5-chloro-1-(2-methoxyethyl)-1H-pyrazole-4-yl)amino)-4-(methylamino)-7H-pyrrolo[2,3-d]pyrimidine-5-carbonitrile] | < 10 nM
CCNc1nc(Nc2ccc(C(=O)NC3CCN(C4COC4)CC3)cc2OC)nc2[nH]cc(C#N)c12 [Example 60, 4-((5-cyano-4-(ethylamino)-7H-pyrrolo[2,3-d]pyrimidine-2-yl)amino)-3-methoxy-N-(1-(oxetane-3-yl)piperidine-4-yl)benzylamide] | 10 to 100 nM
CNc1nc(Nc2ccc(C(=O)NC3CCN(C4COC4)CC3)cc2OC)nc2[nH]cc(C#N)c12 [Example 61, 4-((5-cyano-4-(methylamino)-7H-pyrrolo[2,3-d]pyrimidine-2-yl)amino)-3-methoxy-N-(1-(oxetane-3-yl)piperidine-4-yl)benzylamide] | 10 to 100 nM
CCNc1nc(Nc2cnn(CCOC)c2Cl)nc2[nH]cc(C#N)c12 [Example 62, 2-((5-chloro-1-(2-methoxyethyl)-1H-pyrazole-4-yl)amino)-4-(ethylamino)-7H-pyrrolo[2,3-d]pyrimidine-5-carbonitrile] | < 10 nM
CNc1nc(Nc2cc(F)c(C(=O)NC3CCN(C4COC4)CC3)cc2OC)nc2[nH]cc(C#N)c12 [Example 63, 4-((5-cyano-4-(methylamino)-7H-pyrrolo[2,3-d]pyrimidine-2-yl)amino)-2-fluoro-5-methoxy-N-(1-(oxetane-3-pyrrolidine-1-yl)piperidine-4-yl)benzamide] | < 10 nM
